Test results: patent US7396837B2, “Antitumoral analogs of lamellarins” (Pharma Mar, S.A.U., priority 2002, dated 2008)

Tests used:
HT-29 = experiment: SRB colorimetric cell growth inhibition assay, HT-29; assay type: cell-based; settings: HT-29
Summary of the method: (§1)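 Cancer cells grown in vitro were continuously treated with compound. Cell mass was then determined by SRB staining and expressed as growth inhibition.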

LoVo = experiment: SRB colorimetric cell growth inhibition assay, LoVo; assay type: cell-based; settings: LOVO
Summary of the method: as §1

DU-145 = experiment: SRB colorimetric cell growth inhibition assay, DU-145; assay type: cell-based; settings: DU-145
Summary of the method: as §1

PANC-1 = experiment: SRB colorimetric cell growth inhibition assay, PANC-1; assay type: cell-based; settings: PANC-1
Summary of the method: as §1

IGROV = experiment: SRB colorimetric cell growth inhibition assay, IGROV; assay type: cell-based; settings: IGROV
Summary of the method: as §1

human topoisomerase I = molecular target: T1, human topoisomerase I (Homo sapiens, UniProt P11387); experiment: Topoisomerase I DNA relaxation assay (supercoiled plasmid DNA); assay type: biochemical; settings: supercoiled plasmid DNA, each compound tested at 1 μM, agarose gel with ethidium bromide
T1 sequence (P11387 1-765): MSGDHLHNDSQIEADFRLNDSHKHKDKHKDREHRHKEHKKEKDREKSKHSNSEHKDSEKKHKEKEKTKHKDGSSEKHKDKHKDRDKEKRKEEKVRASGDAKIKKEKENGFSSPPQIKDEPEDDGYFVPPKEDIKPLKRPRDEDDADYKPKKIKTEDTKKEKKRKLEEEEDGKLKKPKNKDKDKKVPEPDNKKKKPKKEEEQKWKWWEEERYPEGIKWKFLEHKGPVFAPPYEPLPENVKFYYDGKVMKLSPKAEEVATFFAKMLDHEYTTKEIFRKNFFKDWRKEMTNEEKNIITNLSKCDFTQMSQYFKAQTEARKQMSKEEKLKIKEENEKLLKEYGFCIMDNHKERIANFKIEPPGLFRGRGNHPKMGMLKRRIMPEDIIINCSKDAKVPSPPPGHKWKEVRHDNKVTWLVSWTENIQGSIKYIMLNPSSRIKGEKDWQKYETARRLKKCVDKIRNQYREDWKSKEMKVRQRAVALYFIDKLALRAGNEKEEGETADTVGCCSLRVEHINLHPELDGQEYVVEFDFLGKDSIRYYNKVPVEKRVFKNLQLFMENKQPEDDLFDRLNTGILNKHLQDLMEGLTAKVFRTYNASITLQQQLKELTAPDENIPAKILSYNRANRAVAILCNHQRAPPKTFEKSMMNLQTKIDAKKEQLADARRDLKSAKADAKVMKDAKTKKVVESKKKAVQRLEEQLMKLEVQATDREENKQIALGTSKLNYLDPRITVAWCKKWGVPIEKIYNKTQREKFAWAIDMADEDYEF
Experimental: Two assays, based on DNA relaxation and DNA cleavage (Bailly, C. DNA relaxation and cleavage assays to study topoisomerase I inhibitors. Methods Enzymol. 2001, 340, 610-623) were used evaluate the effects of the lamellarin analogs on the catalytic activity of human topoisomerase I.
In the first assay, a supercoiled plasmid DNA was relaxed with topoisomerase I in the absence or presence of the test compounds, each tested at 1 μM. DNA relaxation products were then resolved by gel electrophoresis on agarose gels containing ethidium bromide to stain the DNA.

SKOV-3 = experiment: SRB colorimetric cell growth inhibition assay, SKOV-3; assay type: cell-based; settings: SKOV-3
Text: (§2) A colorimetric type of assay, using sulforhodamine B (SRB) reaction has been adapted for a quantitative measurement of cell growth and viability (following the technique described by P. A. Skehan, et al., J. Natl. Cancer Inst. 1990, 82, 1107-1112).
(§3) This form of assay employs 96 well cell culture microplates of 9 mm diameter (T. Mosmann et al., J. of Immunological Methods 1983, 65, 55-63; G. T. Faircloth et al., J. of Tissue and Culture Methods 1988, 11, 201-205).
(§4) Most of the cell lines are obtained from American Type Culture Collection (ATCC) derived from different human cancer types.
(§5) The values for mean +/− SD of data from triplicate wells are calculated. Some parameters for cellular responses can be calculated: GI=growth inhibition, TGI=total growth inhibition (cytostatic effect) and LC=cell killing (cytotoxic effect).

LNCaP = experiment: SRB colorimetric cell growth inhibition assay, LNCaP; assay type: cell-based; settings: LN-caP
Summary of the method: as §1

A-549 = experiment: SRB colorimetric cell growth inhibition assay, A-549; assay type: cell-based; settings: A-549
Summary of the method: as §1

SK-BR-3 = experiment: SRB colorimetric cell growth inhibition assay, SK-BR-3; assay type: cell-based; settings: SK-BR-3
Summary of the method: as §1

SK-MEL-28 = experiment: SRB colorimetric cell growth inhibition assay, SK-MEL-28; assay type: cell-based; settings: MEL-28
Summary of the method: as §1

LoVo-Dox = experiment: SRB colorimetric cell growth inhibition assay, LoVo-Dox (MDR); assay type: cell-based; settings: LOVO-DOX
Summary of the method: as §1

IGROV-ET = experiment: SRB colorimetric cell growth inhibition assay, IGROV-ET (ET-743 resistant); assay type: cell-based; settings: IGROV-ET
Summary of the method: as §1

K-562 = experiment: SRB colorimetric cell growth inhibition assay, K-562; assay type: cell-based; settings: K-562
Summary of the method: as §1

H-MEC-1 = experiment: SRB colorimetric cell growth inhibition assay, H-MEC-1; assay type: cell-based; settings: H-MEC-1
Text: as §2, §3, §4, §5

[1] = total growth inhibition (cytostatic effect)

`COc1cc(-c2c3n(c4c(=O)oc5cc(OS(C)(=O)=O)c(OC)cc5c24)CCc2cc(OS(C)(=O)=O)c(OC)cc2-3)ccc1OS(C)(=O)=O` [Compound 22] was tested, and the GI50 (HT-29; GI=growth inhibition, read-out: GI50 HT-29) was 0.879 µM, the CC50 (HT-29; cell killing (cytotoxic effect), read-out: LC50 HT-29) was 13.6 µM and the “TGI HT-29” value (HT-29; [1]) was 1.36E−05 Molar. The GI50 (LoVo; GI=growth inhibition, read-out: GI50 LOVO) was 0.484 µM, the CC50 (LoVo; cell killing (cytotoxic effect), read-out: LC50 LOVO) was 13.6 µM and the “TGI LOVO” value (LoVo; [1]) was 2.49E−06 Molar. The GI50 (DU-145; GI=growth inhibition, read-out: GI50 DU-145) was 0.743 µM, the CC50 (DU-145; cell killing (cytotoxic effect), read-out: LC50 DU-145) was 13.6 µM and the “TGI DU-145” value (DU-145; [1]) was 8.10E−06 Molar. The GI50 (PANC-1; GI=growth inhibition, read-out: GI50 PANC-1) was 0.976 µM, the CC50 (PANC-1; cell killing (cytotoxic effect), read-out: LC50 PANC-1) was 13.6 µM and the “TGI PANC-1” value (PANC-1; [1]) was 1.36E−05 Molar. The GI50 (IGROV; GI=growth inhibition, read-out: GI50 IGROV) was 0.787 µM, the CC50 (IGROV; cell killing (cytotoxic effect), read-out: LC50 IGROV) was 13.6 µM and the “TGI IGROV” value (IGROV; [1]) was 8.54E−06 Molar. For the same molecule, the “stimulation of DNA cleavage by topoisomerase I / inhibition of topoisomerase I (nicked DNA band) in DNA relaxation assay” value (human topoisomerase I) was “inactive”, the GI50 (SKOV-3; GI=growth inhibition, read-out: GI50 SKOV-3) was 0.201 µM and the LC50 (concentration causing 50% net cell killing) (SKOV-3; cell killing (cytotoxic effect), read-out: LC50 SKOV-3) was 13.6 µM. The “TGI SKOV-3” value (SKOV-3; [1]) was 2.22E−06 Molar, the GI50 (LNCaP; GI=growth inhibition, read-out: GI50 LN-caP) was 0.564 µM and the CC50 (LNCaP; cell killing (cytotoxic effect), read-out: LC50 LN-caP) was 13.6 µM. The “TGI LN-caP” value (LNCaP; [1]) was 1.82E−06 Molar, the GI50 (A-549; GI=growth inhibition, read-out: GI50 A-549) was 0.89 µM and the CC50 (A-549; cell killing (cytotoxic effect), read-out: LC50 A-549) was 13.6 µM. The “TGI A-549” value (A-549; [1]) was 7.73E−06 Molar, the GI50 (SK-BR-3; GI=growth inhibition, read-out: GI50 SK-BR-3) was 0.257 µM and the CC50 (SK-BR-3; cell killing (cytotoxic effect), read-out: LC50 SK-BR-3) was 7.16 µM. The “TGI SK-BR-3” value (SK-BR-3; [1]) was 1.81E−06 Molar, the GI50 (SK-MEL-28; GI=growth inhibition, read-out: GI50 MEL-28) was 0.332 µM and the CC50 (SK-MEL-28; cell killing (cytotoxic effect), read-out: LC50 MEL-28) was 13.6 µM. For the same molecule, the “TGI MEL-28” value (SK-MEL-28; [1]) was 3.56E−06 Molar, the GI50 (LoVo-Dox; GI=growth inhibition, read-out: GI50 LOVO-DOX) was 6.59 µM and the CC50 (LoVo-Dox; cell killing (cytotoxic effect), read-out: LC50 LOVO-DOX) was 13.6 µM. The “TGI LOVO-DOX” value (LoVo-Dox; [1]) was 1.36E−05 Molar, the GI50 (IGROV-ET; GI=growth inhibition, read-out: GI50 IGROV-ET) was 2.89 µM and the CC50 (IGROV-ET; cell killing (cytotoxic effect), read-out: LC50 IGROV-ET) was 13.6 µM. The “TGI IGROV-ET” value (IGROV-ET; [1]) was 1.36E−05 Molar, the GI50 (K-562; GI=growth inhibition, read-out: GI50 K-562) was 0.67 µM and the CC50 (K-562; cell killing (cytotoxic effect), read-out: LC50 K-562) was 13.6 µM. For the same molecule, the “TGI K-562” value (K-562; [1]) was 4.77E−06 Molar, the GI50 (H-MEC-1; GI=growth inhibition, read-out: GI50 H-MEC-1) was 0.856 µM and the LC50 (concentration giving 50% net cell killing) (H-MEC-1; cell killing (cytotoxic effect)) was 10.4 µM. The “TGI H-MEC-1” value (H-MEC-1; [1]) was 2.91E−06 Molar.
